Assay results from patent US20230129095A1, “PEPTIDE INHIBITORS OF INTERLEUKIN-23 RECEPTOR AND THEIR USE TO TREAT INFLAMMATORY DISEASES” (Protagonist Therapeutics, Inc., priority 2020, published 2023).
*1 amine or outer side, *2 acyl side, *3 side chain or, on linkers, in order; H or OH if unused. Where a SMILES comes first, the peptide text is derived from it. Bridges are numbered along the chain shown (N, C = ends). [ ]: non-standard residue; d: D form. X2 = O=C([C@H](Cc1c[nH]c2c(-c3ccc(F)cc3)cccc12)N[*:1])[*:2]; Trp(7-Ph) = N[C@@H](Cc1c[nH]c2c(-c3ccccc3)cccc12)C(=O)O; Ala(quinolin-3-yl) = N[C@@H](Cc1cnc2ccccc2c1)C(=O)O; 2Nal = N[C@@H](Cc1ccc2ccccc2c1)C(=O)O; AEF = NCCOc1ccc(C[C@H](N)C(=O)O)cc1; Pen = CC(C)(S)[C@H](N)C(=O)O; αMeK = C[C@](N)(CCCCN)C(=O)O; Thp = NC1(C(=O)O)CCOCC1

What was measured:
[1] = Stability in simulated intestinal fluid (SIF); format: in vitro ADME; conditions: 37° C.; for SIF t1/2: 100 fold dilution of standard SIF concentration, 20 μM
Method: Studies were carried out in simulated intestinal fluid (SIF) and simulated gastric fluid (SGF) to evaluate gastric stability of the peptide inhibitors of the present invention. In addition, studies were carried out to assess redox stability of the peptide inhibitors of the present invention.
SIF was prepared by adding 6.8 g of monobasic potassium phosphate and 10.0 g of pancreatin to 1.0 L of water. After dissolution, the pH was adjusted to 6.8 using NaOH. DMSO stocks (2 mM) were first prepared for the test compounds. Aliquots of the DMSO solutions were dosed into 6 individual tubes, each containing 0.5 mL of SIF, which is pre-warmed to 37° C. The final test compound concentration was 20 μM. The vials were kept in a benchtop Thermomixer® for the duration of the experiment. At each timepoint (0, 5, 10, 20, 40, 60, or 360 minutes or 24 hours), 1.0 mL of acetonitrile containing 1% formic acid was added to one vial to terminate the reaction. Samples were stored at 4° C. until the end of the experiment. After the final timepoint is sampled, the tubes were mixed and then centrifuged at 3,000 rpm for 10 minutes. Aliquots of the supernatant were removed, diluted 1:1 into distilled water containing internal standard, and analyzed by LCMS/MS. Percent remaining at each timepoint was calculated based on the peak area response ratio of test to compound to internal standard. Time 0 was set to 100%, and all later timepoints were calculated relative to time 0. Half-lives were calculated by fitting to a first-order exponential decay equation using Graphpad.

[2] = Stability in human fecal homogenate (anaerobic); format: in vitro ADME; conditions: pH 6.8, 20% human fecal homogenate, 37° C., up to 24 hours, read-out: t1/2: Human Feces anaerobic
Method: (§1) Studies were carried out in human or cynomolgus monkey fecal homogenate to evaluate gastrointestinal stability of the peptide inhibitors of the present invention.
(§2) Fecal homogenate ([…]) was prepared by adding 4 mL of growth medium (1 liter contains 2 g peptone water powder, 2 g yeast extract, 0.1 g NaCl, 0.04 g KH2PO4, 0.01 g CaCl2.6H2O, 0.01 g MgSO4.7H2O, 2 mL Tween 80, 0.5 g bile salts, 0.5 g L-cysteine HCl, 2 g NaHCO3, and 10 μL Vitamin K, pH adjusted to 6.8, and sterilized by filtration through a 0.22 μm filter) to every gram of feces (pooled freshly collected human or cynomolgus monkey feces). The suspension was vortexed to break up large clumps, and homogenized using a bead mill homogenizer. Centrifuged the homogenate at 2800×g for 15 min. The supernatant is taken out and used for incubations. DMSO stocks (10 mM) were first prepared for the test compounds. Incubations were performed in an anaerobic chamber conditioned at 37° C. Aliquots of the DMSO solutions were dosed into 1.0 mL aliquots of 20% fecal homogenate, which are pre-warmed to 37° C. The final test compound concentration was 20 μM. At each timepoint (0, 20 min, 1, 3, 6, or 24 hours), 100 μL aliquot of each incubation mixture is taken out and added to separate tubes containing 300 μL of 50% acetonitrile/50% methanol and an internal standard to terminate the reaction. Samples were taken out of the anaerobic chamber and stored at 4° C. until the end of the experiment. After the final timepoint is sampled, the tubes were mixed and then centrifuged at 3,000 rpm for 10 minutes. Aliquots of the supernatant were removed, diluted 1:1 into distilled water containing 0.1% formic acid, and analyzed by LC/MS/MS. Percent remaining at each timepoint was calculated based on the peak area response ratio of test to compound to internal standard. Time 0 was set to 100%, and all later timepoints were calculated relative to time 0. Half-lives were calculated by fitting to a first-order exponential decay equation using Graphpad or Excel.

[3] = Stability in cynomolgus monkey fecal homogenate (anaerobic); format: in vitro ADME; conditions: pH 6.8, 20% cynomolgus monkey fecal homogenate, 37° C., up to 24 hours, read-out: t1/2: Monkey Feces anaerobic (converted)
Method: as §1, §2

[4] = test system: Natural killer (NK) cells; format: cell-based, human
From the text: Where not shown, data was not yet determined.

Stability in rat plasma = format: in vitro ADME; conditions: both sexes, SD rat plasma, EDTA, 37° C., up to 24 hours, read-out: t1/2: Rat Plasma EDTA
Method: Peptides of interest (20 μM) were incubated with pre-warmed rat plasma (SD rat, mixed gender pooled, EDTA, filtered through 0.22 μm, BioreclamationIVT) at 37° C. Aliquots were taken at various time points up to 24 hours (e.g. 0, 0.25, 1, 3, 6 and 24 hr), and immediately quenched with 4 volumes of organic solvent (acetonitrile/methanol (1:1) and 0.1% formic acid, containing 1 μM internal standard). Quenched samples were stored at 4° C. until the end of the experiment and centrifuged at 4,000 rpm for 10 minutes. The supernatant were diluted 1:1 with deionized water and analyzed using LC-MS. Percentage remaining at each time point was calculated based on the peak area ratio (analyte over internal standard) relative to the initial level at time zero. Half-lives were calculated by fitting to a first-order exponential decay equation using GraphPad.

[5] = 20% fecal homogenate (supernatant)

CC(=O)NCCCC[C@@H]1NC(=O)[C@H](Cc2c[nH]c3c(-c4ccccc4)cccc23)NC(=O)[C@H]([C@@H](C)O)NC(=O)[C@H](CC(N)=O)NC(=O)[C@@H](NC(C)=O)C(C)(C)SSC(C)(C)[C@@H](C(=O)N[C@@H](Cc2ccc(OCCN)cc2)C(=O)N[C@@H](Cc2cnc3ccccc3c2)C(=O)NC2(C(=O)N[C@@H](CCC(=O)O)C(=O)N[C@@H](CC(N)=O)C(=O)N[C@H](CCCCN)C(N)=O)CCOCC2)NC1=O [Peptide 13, Ac-[Pen]-N-T-[W(7-Ph)]-[Lys(Ac)]-[Pen]-Phe[4-(2-aminoethoxy)]-[3Quin]-[THP]-E-N-[(D)Lys]-NH2] (Ac-[Pen]NT[Trp(7-Ph)]K(Ac)[Pen][AEF][Ala(quinolin-3-yl)][Thp]EN[dK]-NH2; disulfide 1-6)
SIF t1/2 [1]: 24 h | half-life at 20 μM [2, 5]: > 24 h | half-life at 20 μM [3, 5]: > 24 h | IC50 [4]: 1.55 nM | half-life at 20 μM (Stability in rat plasma): > 24 h

CC(=O)NCCCC[C@@H]1NC(=O)[C@H](Cc2c[nH]c3c(-c4ccccc4)cccc23)NC(=O)[C@H]([C@@H](C)O)NC(=O)[C@H](CC(N)=O)NC(=O)[C@@H](NC(C)=O)C(C)(C)SSC(C)(C)[C@@H](C(=O)N[C@@H](Cc2ccc(OCCN)cc2)C(=O)N[C@@H](Cc2cnc3ccccc3c2)C(=O)NC2(C(=O)N[C@@H](CCC(=O)O)C(=O)N[C@@H](CC(N)=O)C(=O)N[C@H](CC(C)C)C(N)=O)CCOCC2)NC1=O [Peptide 15, Ac-[Pen]-N-T-[W(7-Ph)]-[Lys(Ac)]-[Pen]-Phe[4-(2-aminoethoxy)]-[3Quin]-[THP]-E-N-[(D)Leu]-NH2] (Ac-[Pen]NT[Trp(7-Ph)]K(Ac)[Pen][AEF][Ala(quinolin-3-yl)][Thp]EN[dL]-NH2; disulfide 1-6)
SIF t1/2 [1]: 24 h | half-life at 20 μM [2, 5]: > 24 h | half-life at 20 μM [3, 5]: > 24 h | IC50 [4]: 2.44 nM | half-life at 20 μM (Stability in rat plasma): > 24 h

CC(=O)NCCCC[C@@H]1NC(=O)[C@H](Cc2c[nH]c3c(-c4ccccc4)cccc23)NC(=O)[C@H]([C@@H](C)O)NC(=O)[C@H](CC(N)=O)NC(=O)[C@@H](NC(C)=O)C(C)(C)SSC(C)(C)[C@@H](C(=O)N[C@@H](Cc2ccc(OCCN)cc2)C(=O)N[C@@H](Cc2cnc3ccccc3c2)C(=O)N[C@@](C)(CCCCN)C(=O)N[C@@H](CCCCNC(C)=O)C(=O)N[C@@H](CC(N)=O)C(=O)N[C@H](CC(C)C)C(N)=O)NC1=O [Peptide 16, Ac-[Pen]-N-T-[W(7-Ph)]-[Lys(Ac)]-[Pen]-Phe[4-(2-aminoethoxy)]-[3Quin]-[a-MeLys]-[Lys(Ac)]-N-[(D)Leu]-NH2] (Ac-[Pen]NT[Trp(7-Ph)]K(Ac)[Pen][AEF][Ala(quinolin-3-yl)][αMeK]K(Ac)N[dL]-NH2; disulfide 1-6)
SIF t1/2 [1]: 24 h | half-life at 20 μM [2, 5]: > 24 h | half-life at 20 μM [3, 5]: > 24 h | IC50 [4]: 2.9 nM | half-life at 20 μM (Stability in rat plasma): > 24 h

CC(=O)NCCCC[C@@H]1NC(=O)[C@H](Cc2c[nH]c3c(-c4ccccc4)cccc23)NC(=O)[C@H]([C@@H](C)O)NC(=O)[C@H](CC(N)=O)NC(=O)[C@@H](NC(C)=O)C(C)(C)SSC(C)(C)[C@@H](C(=O)N[C@@H](Cc2ccc(OCCN)cc2)C(=O)N[C@@H](Cc2cnc3ccccc3c2)C(=O)N[C@@](C)(CCCCN)C(=O)N[C@@H](CCCCNC(C)=O)C(=O)N[C@@H](CC(N)=O)C(=O)N[C@H](CCCCN)C(N)=O)NC1=O [Peptide 14, Ac-[Pen]-N-T-[W(7-Ph)]-[Lys(Ac)]-[Pen]-Phe[4-(2-aminoethoxy)]-[3Quin]-[a-MeLys]-[Lys(Ac)]-N-[(D)Lys]-NH2] (Ac-[Pen]NT[Trp(7-Ph)]K(Ac)[Pen][AEF][Ala(quinolin-3-yl)][αMeK]K(Ac)N[dK]-NH2; disulfide 1-6)
SIF t1/2 [1]: 24 h | half-life at 20 μM [2, 5]: > 24 h | half-life at 20 μM [3, 5]: > 24 h | IC50 [4]: 2.41 nM | half-life at 20 μM (Stability in rat plasma): > 24 h

CC(=O)NCCCC[C@@H]1NC(=O)[C@H](Cc2c[nH]c3c(-c4ccccc4)cccc23)NC(=O)[C@H]([C@@H](C)O)NC(=O)[C@H](CC(N)=O)NC(=O)[C@@H](NC(C)=O)C(C)(C)SSC(C)(C)[C@@H](C(=O)N[C@@H](Cc2ccc(OCCN)cc2)C(=O)N[C@@H](Cc2ccc3ccccc3c2)C(=O)N[C@@](C)(CCCCN)C(=O)N[C@@H](CCCCNC(C)=O)C(=O)N[C@@H](CC(N)=O)C(=O)N[C@H](CC(C)C)C(N)=O)NC1=O [Peptide 1, Ac-[Pen]-N-T-[W(7-Ph)]-[Lys(Ac)]-[Pen]-Phe[4-(2-aminoethoxy)]-[2-Nal]-[a-MeLys]-[Lys(Ac)]-N-[(D)Leu]-NH2]
half-life at 20 μM ([1]; pH 6.8, 100 fold dilution of standard SIF concentration, read-out: SIF t1/2 (converted)): 11.1 h | half-life at 20 μM [2]: > 24 h | half-life at 20 μM [3]: > 24 h | IC50 [4]: 4.3 nM | half-life at 20 μM (Stability in rat plasma; pooled): > 24 h

CC(=O)NCCCC[C@@H]1NC(=O)[C@H](Cc2c[nH]c3c(-c4ccc(F)cc4)cccc23)NC(=O)[C@H]([C@@H](C)O)NC(=O)[C@H](CC(N)=O)NC(=O)[C@@H](NC(C)=O)C(C)(C)SSC(C)(C)[C@@H](C(=O)N[C@@H](Cc2ccc(OCCN)cc2)C(=O)N[C@@H](Cc2ccc3ccccc3c2)C(=O)N[C@@](C)(CCCCN)C(=O)N[C@@H](CCCCNC(C)=O)C(=O)N[C@@H](CC(N)=O)C(=O)N[C@H](CCCCN)C(N)=O)NC1=O [Peptide 10, Ac-[Pen]-N-T-[W(7-(4-FPh))]-[Lys(Ac)]-[Pen]-Phe[4-(2-aminoethoxy)]-[2-Nal]-[a-MeLys]-[Lys(Ac)]-N-[(D)Lys)]-NH2] (Ac-[Pen]NT[X2]K(Ac)[Pen][AEF][2Nal][αMeK]K(Ac)N[dK]-NH2; disulfide 1-6)
SIF t1/2 [1]: 24 h | half-life at 20 μM [2]: > 24 h | half-life at 20 μM [3]: > 24 h | IC50 [4]: 3.32 nM | half-life at 20 μM (Stability in rat plasma; pooled): > 24 h
